Results reported in ChEMBL document CHEMBL2074243, “Mitochondria-targeting drug oligomycin blocked P-glycoprotein activity and triggered apoptosis in doxorubicin-resistant HepG2 cells” (Chemotherapy, 2004).

Target: ATP-dependent translocase ABCB1 (Homo sapiens, UniProt P08183)
Experiment: TP_TRANSPORTER: drug resistance in R-HepG2 cells
Assay type: functional, cell-based

ATP-dependent translocase ABCB1, sequence (P08183 whole entry): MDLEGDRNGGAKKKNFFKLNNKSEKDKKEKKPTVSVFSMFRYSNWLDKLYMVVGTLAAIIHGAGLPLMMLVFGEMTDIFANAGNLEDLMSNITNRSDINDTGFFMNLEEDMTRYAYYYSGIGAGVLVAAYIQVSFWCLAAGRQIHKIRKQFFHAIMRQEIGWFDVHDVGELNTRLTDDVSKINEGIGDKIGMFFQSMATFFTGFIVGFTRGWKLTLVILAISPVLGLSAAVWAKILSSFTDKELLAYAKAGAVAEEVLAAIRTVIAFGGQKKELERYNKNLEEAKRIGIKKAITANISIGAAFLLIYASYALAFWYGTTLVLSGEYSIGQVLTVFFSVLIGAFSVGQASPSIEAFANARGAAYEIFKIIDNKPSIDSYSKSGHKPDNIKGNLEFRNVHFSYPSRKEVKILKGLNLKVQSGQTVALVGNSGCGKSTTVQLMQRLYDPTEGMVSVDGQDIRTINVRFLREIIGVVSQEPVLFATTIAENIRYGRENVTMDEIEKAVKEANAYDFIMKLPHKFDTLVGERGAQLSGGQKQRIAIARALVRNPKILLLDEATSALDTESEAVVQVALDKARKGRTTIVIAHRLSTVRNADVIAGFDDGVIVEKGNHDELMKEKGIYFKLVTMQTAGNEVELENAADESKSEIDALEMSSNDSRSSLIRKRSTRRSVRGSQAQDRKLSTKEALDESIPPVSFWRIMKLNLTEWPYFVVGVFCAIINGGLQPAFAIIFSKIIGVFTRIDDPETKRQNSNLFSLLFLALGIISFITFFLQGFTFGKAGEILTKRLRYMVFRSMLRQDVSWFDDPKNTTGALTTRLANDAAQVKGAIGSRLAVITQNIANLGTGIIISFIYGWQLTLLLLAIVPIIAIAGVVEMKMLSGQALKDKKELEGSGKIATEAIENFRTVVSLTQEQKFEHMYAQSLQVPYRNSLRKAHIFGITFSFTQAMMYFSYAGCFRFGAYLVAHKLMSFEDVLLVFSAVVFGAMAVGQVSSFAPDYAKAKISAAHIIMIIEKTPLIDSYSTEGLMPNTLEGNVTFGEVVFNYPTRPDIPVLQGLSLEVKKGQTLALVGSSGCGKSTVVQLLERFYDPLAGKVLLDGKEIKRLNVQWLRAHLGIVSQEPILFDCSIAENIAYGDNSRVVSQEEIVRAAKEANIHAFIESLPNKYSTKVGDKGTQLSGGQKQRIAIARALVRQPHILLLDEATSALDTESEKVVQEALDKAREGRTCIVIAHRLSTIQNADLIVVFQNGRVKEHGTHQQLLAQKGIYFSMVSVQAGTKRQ

| Activity | Molecule |
| --- | --- |
| substrate [+] | COc1cccc2c1C(=O)c1c(O)c3c(c(O)c1C2=O)C[C@@](O)(C(=O)CO)C[C@@H]3O[C@H]1C[C@H](N)[C@H](O)[C@H](C)O1 [DOXORUBICIN] |
| substrate [+] | CISPLATIN |
| substrate [+] | CC(=O)O[C@H]1C(=O)[C@@]2(C)[C@H]([C@H](OC(=O)c3ccccc3)[C@]3(O)C[C@H](OC(=O)[C@H](O)[C@@H](NC(=O)c4ccccc4)c4ccccc4)C(C)=C1C3(C)C)[C@]1(OC(C)=O)CO[C@@H]1C[C@@H]2O [PACLITAXEL] |
